In patent EP0214862A2, “Anti-tumour platinum complexes, their preparation and their use” (priority 1985, dated 1987):

Assays:
[1] = test system: cisplatin-resistant L1210/CDDP cells; experiment: Anti-tumour activity against cisplatin-resistant L1210/CDDP leukemia in mice (Experiment 2); assay type: in vivo
Source text: (§1) In the following experiments, the test animals used were 8 to 9 week old female mice of the CDF1 strain, each weighing 20-25 g. The standard L1210 leukemia cells were supplied by Dr. T. Yamamoto of the Institute of Medical Science, University of Tokyo, Japan, whilst the cisplatin-resistant L1210 cell line (L1210/CDDP) was supplied by Dr. T. Tashiro of the Cancer Chemotherapy Centre, Japanese Foundation for Cancer Research, Tokyo, Japan.
(§2) CDF1 mice were inoculated intraperitoneally with L1210 cells ([…]). […] Each drug was injected intraperitoneally on days 1 and 4 following tumour implantation. The number of mice in each test group was 6.
(§3) The increase in life span (ILS) was calculated as follows: • ILS% = [(St/Su) - 1] x 100 • in which: • St = weighted median number of days survival of treated mice; and • Su = weighted median number of days survival of untreated mice.
The procedures described in Experiment 1 were repeated exactly, except that the tumour cells were cisplatin-resistant L1210/CDDP cells.

L1210 cells = experiment: Anti-tumour activity against L1210 leukemia inoculated intraperitoneally in mice (Experiment 1); assay type: in vivo; conditions: L1210, CDF1 mice
Method: In the following experiments, the test animals used were 8 to 9 week old female mice of the CDF1 strain, each weighing 20-25 g.
as §2, §3

[2] = test system: cisplatin-resistant L1210 cell line (L1210/CDDP); experiment: In vitro sensitivity of the cisplatin-resistant cell line versus parent L1210; assay type: cell-based, mouse; conditions: L1210/CDDP relative to the parent L1210 cell line
Source text: as §1

[3] = Dose 5 mg/kg intraperitoneally on days 1 and 4, CDF1 mice
[4] = Dose 5 mg/kg intraperitoneally on days 1 and 4
[5] = Dose 10 mg/kg intraperitoneally on days 1 and 4
[6] = Dose 20 mg/kg intraperitoneally on days 1 and 4
[7] = Dose 40 mg/kg intraperitoneally on days 1 and 4
[8] = Dose 80 mg/kg intraperitoneally on days 1 and 4
[9] = Dose 2.5 mg/kg intraperitoneally on days 1 and 4, CDF1 mice
[10] = Dose 0.625 mg/kg intraperitoneally on days 1 and 4
[11] = Dose 1.25 mg/kg intraperitoneally on days 1 and 4
[12] = Dose 2.5 mg/kg intraperitoneally on days 1 and 4
[13] = Dose 30 mg/kg intraperitoneally on days 1 and 4, CDF1 mice
[14] = Dose 60 mg/kg intraperitoneally on days 1 and 4, CDF1 mice

In the case of `C1CCC2[NH][Pt-2]3([NH]C2C1)[O]C1=[N+](CCN1)[Pt-2]1([NH2+]C2CCCCC2[NH2+]1)[OH+]3` (stereo not drawn) [Example 1, Hydroxo(ethyleneurea-N,O)-bis(cis-(trans-(ℓ)-1,2-diaminocyclohexane)platinum (II)] nitrate], the “Body weight change from days 1 to 7” value [1, 3] is reported as “+2.4”, the “Body weight change from days 1 to 7” value ([1]; Dose 10 mg/kg intraperitoneally on days 1 and 4, CDF1 mice) is reported as “+2.3” and the “Body weight change from days 1 to 7” value ([1]; Dose 20 mg/kg intraperitoneally on days 1 and 4, CDF1 mice) is reported as “+2.2”. For the same compound, the “Body weight change from days 1 to 7” value ([1]; Dose 40 mg/kg intraperitoneally on days 1 and 4, CDF1 mice) was -0.3, the “Body weight change from days 1 to 7” value ([1]; Dose 80 mg/kg intraperitoneally on days 1 and 4, CDF1 mice) was -0.5 and the “Body weight change from days 1 to 7” value ([1]; Dose 160 mg/kg intraperitoneally on days 1 and 4, CDF1 mice) was -1.8. The “Wt. Change (Change in body weight from day 1 to day 7)” value (“Wt. Change” for short) (L1210 cells; [4]) was “+2.6 g”, the “Wt. Change” value (L1210 cells; [5]) was “+2.8 g” and the “Wt. Change” value (L1210 cells; [6]) was “+2.2 g”. For the same compound, the “Wt. Change” value (L1210 cells; [7]) was “+0.4 g”, the “Wt. Change” value (L1210 cells; [8]) was “+0.2 g” and the “Wt. Change” value (L1210 cells; Dose 160 mg/kg intraperitoneally on days 1 and 4) was -3.0 g. For the same compound, the “toxic (number of mice)” value (L1210 cells; Dose 240 mg/kg intraperitoneally on days 1 and 4) was “- (2/6, toxic)” and the “toxic (number of mice)” value (L1210 cells; Dose 320 mg/kg intraperitoneally on days 1 and 4) was “- (5/6, toxic)”.

With `N.N.[Cl][Pt][Cl]` [cisplatin] the “degree of cisplatin resistance in terms of in vitro sensitivity” value [2] was 40 fold, the 30-day survivors [1, 9] was 0/5 and the “Body weight change from days 1 to 7” value [1, 9] was “+1.0”. For the same compound, the “ILS(%)” value [1, 9] was 2%, the Median survival days [1, 9] was 9.3 days and the 30-day survivors [1, 3] was 0/6. For the same compound, the “Body weight change from days 1 to 7” value [1, 3] was -1.9, the “ILS(%)” value [1, 3] was 9% and the Median survival days [1, 3] was 9.9 days. The “ILS (Increase in life span)” value (L1210 cells; [10]) was 8%, the “Med.S.T. (Median survival time)” value (L1210 cells; [10]) was 9.1 days and the “Survivors on day 42” value (L1210 cells; [10]) was 0/6. For the same compound, the “Wt. Change” value (L1210 cells; [10]) was “+1.6 g”, the “ILS (Increase in life span)” value (L1210 cells; [11]) was 15% and the “Med.S.T. (Median survival time)” value (L1210 cells; [11]) was 9.7 days. The “Survivors on day 42” value (L1210 cells; [11]) was 0/6, the “Wt. Change” value (L1210 cells; [11]) was “+2.5 g” and the “ILS (Increase in life span)” value (L1210 cells; [12]) was 58%. The “Med.S.T. (Median survival time)” value (L1210 cells; [12]) was 13.3 days, the “Survivors on day 42” value (L1210 cells; [12]) was 0/6 and the “Wt. Change” value (L1210 cells; [12]) was “+1.7 g”. For the same compound, the “ILS (Increase in life span)” value (L1210 cells; [4]) was 364%, the “Med.S.T. (Median survival time)” value (L1210 cells; [4]) was 39.0 days and the “Survivors on day 42” value (L1210 cells; [4]) was 2/6. The “Wt. Change” value (L1210 cells; [4]) was -3.5 g, the “ILS (Increase in life span)” value (L1210 cells; [5]) was 23% and the “Med.S.T. (Median survival time)” value (L1210 cells; [5]) was 10.3 days. The “Survivors on day 42” value (L1210 cells; [5]) was 0/6 and the “Wt. Change” value (L1210 cells; [5]) was -5.5 g.

In the case of carboplatin, the 30-day survivors [1, 13] is reported as 0/6, the “Body weight change from days 1 to 7” value [1, 13] is reported as “+1.2” and the “ILS(%)” value [1, 13] is reported as 9%. For the same compound, the Median survival days [1, 13] was 9.9 days, the 30-day survivors [1, 14] was 0/6 and the “Body weight change from days 1 to 7” value [1, 14] was -0.6. For the same compound, the “ILS(%)” value [1, 14] was 8%, the Median survival days [1, 14] was 9.8 days and the “ILS (Increase in life span)” value (L1210 cells; [4]) was 7%. For the same compound, the “Med.S.T. (Median survival time)” value (L1210 cells; [4]) was 9.0 days, the “Survivors on day 42” value (L1210 cells; [4]) was 0/6 and the “Wt. Change” value (L1210 cells; [4]) was “+1.3 g”. The “ILS (Increase in life span)” value (L1210 cells; [5]) was 7%, the “Med.S.T. (Median survival time)” value (L1210 cells; [5]) was 9.0 days and the “Survivors on day 42” value (L1210 cells; [5]) was 0/6. For the same compound, the “Wt. Change” value (L1210 cells; [5]) was “+2.0 g”, the “ILS (Increase in life span)” value (L1210 cells; [6]) was 7% and the “Med.S.T. (Median survival time)” value (L1210 cells; [6]) was 9.0 days. The “Survivors on day 42” value (L1210 cells; [6]) was 0/6, the “Wt. Change” value (L1210 cells; [6]) was “+0.8 g” and the “ILS (Increase in life span)” value (L1210 cells; [7]) was 10%. The “Med.S.T. (Median survival time)” value (L1210 cells; [7]) was 9.2 days, the “Survivors on day 42” value (L1210 cells; [7]) was 0/6 and the “Wt. Change” value (L1210 cells; [7]) was “+0.4 g”. The “ILS (Increase in life span)” value (L1210 cells; [8]) was 23%, the “Med.S.T. (Median survival time)” value (L1210 cells; [8]) was 10.3 days and the “Survivors on day 42” value (L1210 cells; [8]) was 0/6. For the same compound, the “Wt. Change” value (L1210 cells; [8]) was -0.5 g.
